Data reported in patent publication US20190209581A1, “DOSAGE REGIMEN FOR TREATMENT OF SOLID TUMORS” (Eli Lilly and Company, priority 2016, published 2019).

Legend:
Assay type in all cases: in vivo
[1] = system: HCT 116 human colorectal cell line; assay: Tumor growth inhibition, HCT 116 xenograft; settings: HCT 116 in mice, oral 8 mg/kg, (Mon, Wed, Fri)x4; p <0.05 to <0.01
Procedure: (§1) To evaluate in vivo efficacy and effect of 4,4,4-Trifluoro-N-[(1S)-2-[[(7S)-5-(2-hydroxyethyl)-6-oxo-7H-pyrido[2,3-d][3]benzazepin-7-yl]amino]-1-methyl-2-oxo-ethyl]butanamide on inhibition of Notch processing pharmacodynamics (PD), several cell lines- and patient-derived xenograft models are used. A2780 is a human ovarian cell line (Sigma-Aldrich, No. 93112519); SW480 is a human colorectal cell line (ATCC No. CCL-228); HCT 116 is a human colorectal cell line (ATCC No. CCL-247); U-87 MG is a human glioblastoma cell line (ATCC No. HTB-14); A375 is a human malignant melanoma cell line (ATCC No. CRL-1619); K-562 is a human chronic myelogenous leukemia (CML) cell line characterized by the presence of a fusion transcript comprised of the Bcr and Abl1 genes (ATCC No. CCL-243); Jurkat; HEL 92.1.7 is a human erythroleukemia cell line (ATCC No. TIB-180). […] Tumor growth and body weight are monitored over time to evaluate efficacy and signs of toxicity. Bidimensional measurements of tumors are performed twice a week and tumor volumes are calculated based on the following formula: (Tumor Volume)=[(L)×(W2)×(Π/6)] where L is mid-axis length and W is mid-axis width. […] The log volume data are analyzed with a two-way repeated measures analysis of variance by time and treatment using the MIXED™ procedures in SAS™ software (version 8.2). […]

[2] = system: human glioblastoma (EL 2056); assay: Tumor growth inhibition, patient-derived tumor model EL2056; settings: EL2056 in mice, oral 8 mg/kg, (Mon, Wed, Fri)x5; p <0.0001
Procedure: as §1

[3] = system: human colon carcinoma (EL 1986); assay: Tumor growth inhibition, patient-derived tumor model EL1986; settings: EL1986 in mice, oral 8 mg/kg, (Mon, Wed, Fri)x5; p <0.0001
Procedure: as §1

Structure (SMILES): C[C@H](NC(=O)CCC(F)(F)F)C(=O)N[C@@H]1C(=O)N(CCO)c2ncccc2-c2ccccc21 [Compound 1, 4,4,4-trifluoro-N-[(1S)-2-[[(7S)-5-(2-hydroxyethyl)-6-oxo-7H-pyrido[2,3-d][3]benzazepin-7-yl]amino]-1-methyl-2-oxo-ethyl]butanamide]
- % TGI [1]: 37.58 (<0.05 to %
- % TGI [2]: 59.05 (<0.0001) %
- % TGI [3]: 62.00 (<0.0001) %
